Data taken from US20090306132A1, “USE OF DERIVATIVES OF NAPHTHALENESULPHONIC OR QUINOLINESULPHONIC ACID IN THE TREATMENT OF VASOPROLIFERATIVE OCULAR DISEASES” (ITALFARMACO, S.A., priority 2006, published 2009).

Tested on: hypoxia-induced hypervascularization of the retina
Assay: Inhibition of hypoxia-induced vascularization in a mouse model of retinopathy of prematurity (retinopathy score)
Assay type: in vivo, C57BL/6J mice
Method: A total of thirty C57BL/6J mice were used in a model of retinopathy of prematurity. Seven days after birth, the mice (young) were transferred together with their mothers to a high-oxygen atmosphere (75%) obtained using a mixture of oxygen and air. After 5 days, the animals were transferred to a normal atmosphere. The relative hypoxia produced leads to the release of growth factors which, in turn, cause hypervascularization of the retina. 14-18 hours thereafter, an intravitreous injection of 2 μl of a sterile saline solution of sodium 5-amino-2-naphthalene sulfonate (25 mg/ml) into an eye was performed, and another injection of an equivalent volume of saline solution was performed in the contralateral eye.
Five days after the return to normal atmosphere, the mice were put down by means of an intracardiac injection of dextrane marked with fluorescein (50 mg/ml), the nuclei were removed from both eyes and were fixed for 2 to 6 hours in formaldehyde (4%) at room temperature.
Subsequently, the retina was cut and mounted for observation by fluorescent microscopy, with the vasculature of the retina being assessed. Given that the retina occupies a circular area, in order to perform the assessment, 12 equal radial segments are considered. For the assessment of the central vascularization, the retina is divided into three concentric circles defining three zones: the interior zone around the optic disc, the middle and the exterior zone.
The retinopathy is quantified using a system of multiple assessment in which various morphological parameters associated with retinopathy are assessed: • Presence of a “crest” in each radial segment. One point for each radial segment with the presence of crests. Scoring from 0 to 12. • Presumed extraretinal vascularization, indicated by the presence of groupings of “crest-like” structures. One point for each radial segment with groupings. Scoring from 0 to 12. • Size of the central avascular zone. Scoring from 0 to 3, with 0 meaning an occupation of less than 50% of the interior zone; 1 an occupation of less than 25% of the sum of the interior and middle zone; 2 an occupation of between 25-50% of said sum and 3 an occupation of greater than 50% of same. • Tortuosity of the vessels, measured as a percentage of tortuous vessels with respect to the total. The scoring ranges from 0 to 3, with 0 meaning no tortuosity, 1 if less than ⅓ of the total are tortuous, 2 if between ⅓ and ⅔ are tortuous, and 3 if more than ⅔ are tortuous.
For each eye, a global assessment was obtained consisting of the sum of the points obtained for each parameter.
The statistical analysis of the data was performed subsequently using a Wilcoxon's test.

[1] = intravitreous injection of 2 μl of 25 mg/ml in saline, five days after return to normal atmosphere, N 30

Nc1cccc2cc(S(=O)(=O)[O-])ccc12.[Na+] [ACTIVE, sodium 5-amino-2-naphthalene sulfonate]
Effect seen in histological sections of treated eye versus contralateral placebo eye (in words) (histological sections, FIG. 2): antiangiogenic effect | Global retinopathy assessment (sum of the points obtained for each parameter), Median (intravitreous injection of 2 μl of 25 mg/ml in saline into one eye, saline in contralateral eye, assessed five days after return to normal atmosphere, N 30, p=0.017 vs placebo (Wilcoxon)): 10.5 | Global retinopathy assessment (sum of the points obtained for each parameter), Maximum [1]: 16 | Global retinopathy assessment (sum of the points obtained for each parameter), Minimum [1]: 3 | Effect on neovascularization induced by hypoxia of the retina (in words) (score compared to placebo, FIG. 1): inhibitory effect
